Source: the Kinase Knowledgebase extract (Sharma et al. 2016)

Target: EGFR (UniProt P00533)
Sequence (P00533 whole entry, looked up): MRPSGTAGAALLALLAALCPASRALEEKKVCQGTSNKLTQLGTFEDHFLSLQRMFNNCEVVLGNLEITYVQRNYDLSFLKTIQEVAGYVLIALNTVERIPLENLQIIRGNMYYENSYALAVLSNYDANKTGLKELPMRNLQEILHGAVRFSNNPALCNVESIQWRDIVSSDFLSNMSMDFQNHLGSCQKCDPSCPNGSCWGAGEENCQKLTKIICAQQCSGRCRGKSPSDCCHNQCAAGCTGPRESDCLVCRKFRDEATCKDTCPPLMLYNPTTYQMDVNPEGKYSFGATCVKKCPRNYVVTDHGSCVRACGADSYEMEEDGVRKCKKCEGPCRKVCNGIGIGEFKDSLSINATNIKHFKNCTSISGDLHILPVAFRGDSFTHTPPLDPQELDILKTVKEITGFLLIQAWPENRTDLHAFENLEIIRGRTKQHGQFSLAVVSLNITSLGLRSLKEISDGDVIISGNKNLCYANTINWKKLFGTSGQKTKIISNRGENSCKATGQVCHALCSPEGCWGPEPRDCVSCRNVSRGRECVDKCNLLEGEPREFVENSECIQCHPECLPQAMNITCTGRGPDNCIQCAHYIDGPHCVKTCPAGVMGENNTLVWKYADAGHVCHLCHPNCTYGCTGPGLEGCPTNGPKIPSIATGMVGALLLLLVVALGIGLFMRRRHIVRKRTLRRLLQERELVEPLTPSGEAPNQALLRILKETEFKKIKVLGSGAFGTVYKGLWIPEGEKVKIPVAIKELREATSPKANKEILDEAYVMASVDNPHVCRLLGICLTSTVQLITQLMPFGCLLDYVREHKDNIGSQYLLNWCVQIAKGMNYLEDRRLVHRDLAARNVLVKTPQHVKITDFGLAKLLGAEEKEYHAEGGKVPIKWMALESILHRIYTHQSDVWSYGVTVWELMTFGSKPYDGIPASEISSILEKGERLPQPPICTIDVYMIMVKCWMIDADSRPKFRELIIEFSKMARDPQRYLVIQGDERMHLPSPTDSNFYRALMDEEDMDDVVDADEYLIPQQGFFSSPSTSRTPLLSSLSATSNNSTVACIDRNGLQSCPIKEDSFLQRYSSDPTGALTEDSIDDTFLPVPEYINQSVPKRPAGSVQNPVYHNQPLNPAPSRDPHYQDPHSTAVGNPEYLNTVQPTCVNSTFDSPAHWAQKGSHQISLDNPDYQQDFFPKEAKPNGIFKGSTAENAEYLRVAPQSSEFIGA

IC50 [µM] | Structure (SMILES)
0.08 | C=CC(=O)NCCC(=O)Nc1cc2c(Nc3ccc(Br)cc3F)ncnc2cc1OCC1CCN(C)CC1
0.012 | C=CC(=O)NCCCNc1cc2c(Nc3ccc(F)c(F)c3F)ncnc2cc1OCC1CCN(C)CC1
0.035 | C=CC(=O)NCCCNc1cc2c(Nc3ccc(Br)cc3F)ncnc2cc1OCC1CCN(C(C)=O)CC1
0.011 | C=CC(=O)NCCCNc1cc2c(Nc3ccc(Br)cc3F)ncnc2cc1OCC1CCN(C)CC1
0.068 | C=CC(=O)NCCCNc1cc2c(Nc3ccc(Br)cc3F)ncnc2cc1OCC1CCN(C(=O)C=C)CC1
0.032 | C=CC(=O)Nc1cc2c(Nc3ccc(Br)cc3F)ncnc2cc1OCCNC(=O)CCC
0.652 | C=CC(=O)Nc1cc2c(Nc3ccc(Br)cc3F)ncnc2cc1OCC(=O)NCCN(C)C
0.056 | C=CC(=O)NCCCNc1cc2c(Nc3ccc(Br)cc3F)ncnc2cc1OCC1CCN(C(=O)CC)CC1
0.021 | C=CC(=O)Nc1cc2c(Nc3ccc(Br)cc3F)ncnc2cc1OCCNC(=O)CCCN(C)C
0.325 | C=CC(=O)Nc1cc2c(Nc3ccc(Br)cc3F)ncnc2cc1OCCNC(=O)CC(C)N(C)C (stereo not given)
0.246 | C=CC(=O)Nc1cc2c(Nc3ccc(Br)cc3F)ncnc2cc1OCCOC(=O)CC(=O)OCC
0.956 | C=CC(=O)Nc1cc2c(Nc3ccc(Br)cc3F)ncnc2cc1OCCOC(=O)CC(=O)O
0.028 | C=CC(=O)Nc1cc2c(Nc3ccc(Br)c(Cl)c3F)ncnc2cc1OCCNC(=O)CCCN(C)C
0.568 | C=CC(=O)Nc1cc2c(Nc3ccc(Br)c(F)c3F)ncnc2cc1OCCNC(=O)CCCN(C)C
0.076 | C=CC(=O)NCCNc1cc2c(Nc3ccc(Br)cc3F)ncnc2cc1OCC1CCN(C)CC1
